Measurements: PubChem BioAssay (NCI)
“And” between values parts separate entries of the source, which are not always exact repeats. Identical values can stand only once.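 Protocol summary: plate cells (96-well), add compound at 5 concentrations, incubate 48 h, interpolate endpoints linearly. At the GI50, growth is halved. TGI: concentration producing complete growth inhibition.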 Where a SMILES comes first, the peptide text is derived from it. [ ]: non-standard residue; d: D form. The star is where a group is joined. ξ: configuration not given here. NMeF = CN[C@@H](Cc1ccccc1)C(=O)O; NMeV = CN[C@H](C(=O)O)C(C)C; ξNMeN = CNC(CC(N)=O)C(=O)O; NMeA = CN[C@@H](C)C(=O)O; ξNMeV = CNC(C(=O)O)C(C)C; Boc = CC(C)(C)OC(=O)*

Tests used:
Test in all cases: inhibition of tumour cell growth, NCI panel, 48 h
SN12C renal = test system: SN12C renal
786-0 renal = test system: 786-0 renal
KM20L2 colon = test system: KM20L2 colon
M14 melanoma = test system: M14 melanoma
PC-3 prostate = test system: PC-3 prostate
SK-MEL-28 melanoma = test system: SK-MEL-28 melanoma
A498 renal = test system: A498 renal
SF-539 CNS = test system: SF-539 CNS
HOP-62 NSCLC = test system: HOP-62 NSCLC
OVCAR-8 ovarian = test system: OVCAR-8 ovarian
XF 498 CNS = test system: XF 498 CNS
RXF 393 renal = test system: RXF 393 renal
ACHN renal = test system: ACHN renal
OVCAR-4 ovarian = test system: OVCAR-4 ovarian
MALME-3M melanoma = test system: MALME-3M melanoma
SNB-78 CNS = test system: SNB-78 CNS
TK-10 renal = test system: TK-10 renal
LXFL 529 NSCLC = test system: LXFL 529 NSCLC
SW-620 colon = test system: SW-620 colon
SR leukemia = test system: SR leukemia
DU-145 prostate = test system: DU-145 prostate
MDA-MB-435 = test system: MDA-MB-435
DLD-1 colon = test system: DLD-1 colon
NCI/ADR-RES ovarian = test system: NCI/ADR-RES ovarian
OVCAR-5 ovarian = test system: OVCAR-5 ovarian
CAKI-1 renal = test system: CAKI-1 renal
A549 NSCLC = test system: A549 NSCLC
SF-295 CNS = test system: SF-295 CNS
RPMI-8226 leukemia = test system: RPMI-8226 leukemia
EKVX NSCLC = test system: EKVX NSCLC
SF-268 CNS = test system: SF-268 CNS
OVCAR-3 ovarian = test system: OVCAR-3 ovarian
HL-60(TB) leukemia = test system: HL-60(TB) leukemia
HCC-2998 colon = test system: HCC-2998 colon
DMS 114 small cell lung = test system: DMS 114 small cell lung
HT29 colon = test system: HT29 colon
IGROV1 ovarian = test system: IGROV1 ovarian
HOP-92 NSCLC = test system: HOP-92 NSCLC
COLO 205 colon = test system: COLO 205 colon
LOX IMVI melanoma = test system: LOX IMVI melanoma
K-562 leukemia = test system: K-562 leukemia
MDA-N = test system: MDA-N
SK-MEL-5 melanoma = test system: SK-MEL-5 melanoma
HCT-116 colon = test system: HCT-116 colon
UACC-62 melanoma = test system: UACC-62 melanoma
KM12 colon = test system: KM12 colon
MCF7 breast = test system: MCF7 breast
M19-MEL melanoma = test system: M19-MEL melanoma
SNB-75 CNS = test system: SNB-75 CNS
BT-549 breast = test system: BT-549 breast
SK-MEL-2 melanoma = test system: SK-MEL-2 melanoma
HCT-15 colon = test system: HCT-15 colon
UACC-257 melanoma = test system: UACC-257 melanoma
NCI-H23 lung = test system: NCI-H23 lung
U251 CNS = test system: U251 CNS
NCI-H226 lung = test system: NCI-H226 lung
NCI-H522 lung = test system: NCI-H522 lung
SNB-19 CNS = test system: SNB-19 CNS
UO-31 renal = test system: UO-31 renal
MDA-MB-231 breast = test system: MDA-MB-231 breast
T-47D breast = test system: T-47D breast
SK-OV-3 ovarian = test system: SK-OV-3 ovarian
NCI-H460 lung = test system: NCI-H460 lung
DMS 273 small cell lung = test system: DMS 273 small cell lung
CCRF-CEM leukemia = test system: CCRF-CEM leukemia
MOLT-4 leukemia = test system: MOLT-4 leukemia

## COC(=O)[C@H](C)N(C)C(=O)C(CC(N)=O)N(C)C(=O)[C@H](Cc1ccccc1)N(C)C(=O)[C@@H]1CCCN1C(=O)[C@H](C(C)C)N(C)C(=O)C(C(C)C)N(C)C(=O)[C@@H](NC(=O)OC(C)(C)C)C(C)C (stereo partly specified) (Boc-V[ξNMeV][NMeV]P[NMeF][ξNMeN][NMeA]-OMe)
SN12C renal
  TGI: > 75 µM
786-0 renal
  GI50: > 75 µM
  TGI: > 75 µM
KM20L2 colon
  TGI: > 75 µM
M14 melanoma
  GI50: 31.6 µM
  TGI: > 75 µM
PC-3 prostate
  TGI: > 50 µM
SK-MEL-28 melanoma
  GI50: 31.4 µM
  TGI: > 75 µM
A498 renal
  GI50: 60.1 µM
  TGI: > 75 µM
SF-539 CNS
  GI50: > 75 µM
  TGI: > 75 µM
HOP-62 NSCLC
  GI50: > 75 µM
  TGI: > 75 µM
OVCAR-8 ovarian
  TGI: > 75 µM
XF 498 CNS
  TGI: > 75 µM
RXF 393 renal
  TGI: 50 µM
ACHN renal
  GI50: > 75 µM
  TGI: > 75 µM
OVCAR-4 ovarian
  TGI: > 75 µM
MALME-3M melanoma
  TGI: > 75 µM
SNB-78 CNS
  TGI: > 75 µM
TK-10 renal
  GI50: 59.2 µM
  TGI: > 75 µM
LXFL 529 NSCLC
  TGI: > 75 µM
SW-620 colon
  GI50: 34.7 µM
  TGI: > 75 µM
SR leukemia
  TGI: 62.4 µM
DU-145 prostate
  TGI: > 50 µM
MDA-MB-435
  TGI: > 50 µM
DLD-1 colon
  TGI: > 75 µM
NCI/ADR-RES ovarian
  TGI: > 50 µM
OVCAR-5 ovarian
  GI50: > 75 µM
  TGI: > 75 µM
CAKI-1 renal
  GI50: > 75 µM
  TGI: > 75 µM
A549 NSCLC
  GI50: > 75 µM
  TGI: > 75 µM
SF-295 CNS
  GI50: > 75 µM
  TGI: > 75 µM
RPMI-8226 leukemia
  TGI: > 5 µM
EKVX NSCLC
  GI50: > 75 µM
  TGI: > 75 µM
SF-268 CNS
  TGI: > 75 µM
OVCAR-3 ovarian
  TGI: > 75 µM
HL-60(TB) leukemia
  GI50: 16.8 µM
  TGI: 35.9 µM and 36.3 µM
HCC-2998 colon
  GI50: 38.5 µM
  TGI: > 75 µM
DMS 114 small cell lung
  TGI: 55.6 µM
HT29 colon
  GI50: 27.2 µM
  TGI: > 75 µM
IGROV1 ovarian
  GI50: 36.7 µM
  TGI: > 75 µM
HOP-92 NSCLC
  GI50: 17.2 µM
  TGI: 50 µM and 57.4 µM
COLO 205 colon
  GI50: > 75 µM
  TGI: > 75 µM
LOX IMVI melanoma
  GI50: 26.7 µM
  TGI: > 75 µM
K-562 leukemia
  GI50: 33.1 µM
  TGI: > 75 µM
MDA-N
  TGI: > 50 µM
SK-MEL-5 melanoma
  GI50: 35.2 µM
  TGI: > 75 µM
HCT-116 colon
  GI50: 28 µM
  TGI: > 75 µM
UACC-62 melanoma
  GI50: 25.8 µM
  TGI: > 75 µM
KM12 colon
  TGI: 34 µM
MCF7 breast
  TGI: > 50 µM
M19-MEL melanoma
  TGI: 50.9 µM
SNB-75 CNS
  TGI: > 75 µM
BT-549 breast
  TGI: > 50 µM
SK-MEL-2 melanoma
  GI50: 18 µM
  TGI: > 50 µM and 48.8 µM
HCT-15 colon
  TGI: > 75 µM
UACC-257 melanoma
  TGI: > 75 µM
NCI-H23 lung
  GI50: 35.6 µM
  TGI: > 75 µM
U251 CNS
  GI50: 67.1 µM
  TGI: > 75 µM
NCI-H226 lung
  TGI: > 75 µM
NCI-H522 lung
  GI50: 34.8 µM
  TGI: > 75 µM
SNB-19 CNS
  GI50: > 75 µM
  TGI: > 75 µM
UO-31 renal
  GI50: 40.6 µM
  TGI: > 75 µM
MDA-MB-231 breast
  TGI: > 50 µM
T-47D breast
  TGI: > 50 µM
SK-OV-3 ovarian
  GI50: > 75 µM
  TGI: > 75 µM
NCI-H460 lung
  GI50: 25.4 µM
  TGI: > 75 µM
DMS 273 small cell lung
  TGI: > 75 µM
CCRF-CEM leukemia
  GI50: 21.8 µM
  TGI: 39.3 µM and > 75 µM
MOLT-4 leukemia
  GI50: 17.1 µM
  TGI: 50 µM and 51.1 µM
